Values joined by “and” are separate entries in the source; they are usually repeats but may differ in a detail not shown here. Equal entries are not always repeated. Where two headings read alike, the source gives them in different places. No end group written: not given here.

For one data set, the system named is RD cells. The experiment in a line: Cytotoxicity by CCK-8 in RD cells. Type of data set: cell-based. The note with it: RD cells; for cytotoxicity, result in words: CCK-8, 24 h; for Cell viability (%): 24 h. Here is the method: (§1) The experiment was performed as follows. • (1) RD cells were plated in a 96-well plate at 100 μl per well. • (2) After the cells reached 70%-80% confluence, the MEM medium containing 10% serum was replaced with a MEM medium containing 2% serum. Then, polypeptide P2 was added to generate gradient concentrations of 0.01 μM, 0.1 μM, 1 μM, 10 μM, and 100 μM (final concentration), respectively. • (3) The test was performed 24 hours after the addition of the polypeptide, and 10 μl of viable cell detection reagent CCK-8 was added to each well and mixed well. • (4) The plate was incubated at 37° C. for 2 h. • (5) The absorbance value at OD450 was measured with a microplate reader.
as §1, with “P1” for “P2”, “concentrations),” for “concentration),”
(§2) RD cells were used to test the antiviral effect of polypeptide P1. When RD cells reached 80% confluence, polypeptide P1 was added at concentrations of 0 μM (control group), 0.01 μM, 0.1 μM, 1 μM, 10 μM, and 100 μM, respectively. Three parallel wells were used for each concentration. The test was carried out 24 hours later, and the cell viability was detected using the CCK-8 kit.
as §1, with “3A-TAT-EP” for “P2”, “concentrations),” for “concentration),”
(§3) RD cells were used to test the antiviral effect of polypeptide 3A-TAT-EP. When RD cells reached 80% confluence, polypeptide 3A-TAT-EP was added at concentrations of 0 μM (control group), 0.01 μM, 0.1 μM, 1 μM, 10 μM, and 100 μM, respectively. Three parallel wells were used for each concentration. The test was carried out 24 hours later, and the cell viability was detected using the CCK-8 kit.
as §1, with “Then, 3A-EP-DRI or 3A-EP-PEG4-PA” for “Then, polypeptide P2”, “and 50” for “and 100”, “(final concentrations),” for “(final concentration),”
(§4) RD cells were used to test the antiviral effect of polypeptides 3A-EP-DRI and 3A-EP-PEG4-PA. When RD cells reached 80% confluence, polypeptide 3A-EP-DRI or 3A-EP-PEG4-PA was added at concentrations of 0 μM (control group), 0.01 μM, 0.1 μM, 1 μM, 10 μM, and 50 μM, respectively. Three parallel wells were used for each concentration. The test was carried out 24 hours later, and the cell viability was detected using the CCK-8 kit. […]

A short description of data set [1]: Cytotoxicity by CCK-8 in RD cells. The data set is classed as cell-based. Particulars: human; for viability at 24 h, 0.01 µM: 0.01 μM polypeptide; for viability at 24 h, 0.1 µM: 0.1 μM polypeptide; for viability at 24 h, 1 µM: 1 μM polypeptide; for viability at 24 h, 10 µM: 10 μM polypeptide; for viability at 24 h, 20 µM: 20 μM polypeptide; for viability at 24 h, 30 µM: 30 μM polypeptide; for viability at 24 h, 40 µM: 40 μM polypeptide; for CC50 at 24 h: Table 1 summary, cell line not given, read-out: CC50. The procedure:
as §1
as §1, with “P1” for “P2”, “concentrations),” for “concentration),”
as §2
as §1, with “3A-TAT-EP” for “P2”, “concentrations),” for “concentration),”
as §3
as §1, with “Then, 3A-EP-DRI or 3A-EP-PEG4-PA” for “Then, polypeptide P2”, “and 50” for “and 100”, “(final concentrations),” for “(final concentration),”
as §4

For a further data set, the system named is CVA16. Type of data set: cell-based, Coxsackievirus A16. Particulars: RD cells, CCK-8; read-out: IC50 against CVA16.
[2] abbreviates: RD cells, 24 h, untreated = 100%, read-out: Cell viability (%).
[3] abbreviates: RD cells, 24 h (Table 6), read-out: Cell viability (%).
Setting [4] is: RD cells, 50 μM polypeptide, 24 h (Table 6), read-out: Cell viability (%).

In the case of `CCCCCCCCCCCCCCCC(=O)NCCCC[C@H](NC(=O)CCOCCOCCOCCOCCNC(=O)[C@H](CCCCN)NC(=O)[C@H](C)NC(=O)[C@@H]1CCCN1C(=O)[C@@H](NC(=O)[C@@H](NC(=O)[C@H](Cc1c[nH]c2ccccc12)NC(=O)CNC(=O)[C@H](CCC(N)=O)NC(=O)[C@H](CCC(=O)O)NC(=O)[C@H](CCCNC(=N)N)NC(=O)[C@H](CS)NC(=O)[C@H](Cc1ccc(O)cc1)NC(=O)[C@H](CCC(N)=O)NC(=O)[C@H](CCCNC(=N)N)NC(=O)[C@@H](NC(=O)[C@H](CCC(=O)O)NC(=O)[C@@H](N)CCC(=O)O)C(C)C)[C@@H](C)CC)[C@@H](C)CC)C(=O)O` [3A-EP-PEG4-PA], the “cytotoxicity, result in words” value in the data set with RD cells was “not toxic to cells within 50 μM”. In addition, in data set [1] (setting [2]), the viability at 24 h, 0.01 µM stood at 107%; the viability at 24 h, 0.1 µM came out at 94.9%; the viability at 24 h, 1 µM was found to be 89.9%; the viability at 24 h, 10 µM is 95.3%. In data set [1] (setting [3]), the viability at 24 h, 20 µM stood at 98.4%; the viability at 24 h, 30 µM is 99.5%; the viability at 24 h, 40 µM was 99.3%. The viability at 24 h, 50 µM in data set [1] (setting [4]) was 94.8%. For the same molecule, the CC50 at 24 h in data set [1] is greater than 100 µM.

With YGRKKRRQRRRGSGEAVREYCK [BP8], the “Cell viability (%)” value was 103.1369% and 104.4% in the data set with RD cells (3.0625 μM, CCK-8 4 h (Example 18)); 103.5158% with RD cells (6.125 μM, CCK-8 4 h (Example 18)); 99.35% and 104.8421% in the data set on RD cells (12.5 μM, CCK-8 4 h (Example 18)); 97.26% and 99.85% with RD cells (25 μM, CCK-8 4 h (Example 18)); 94.17% and 97.64% in the data set with RD cells (50 μM, CCK-8 4 h (Example 18)); 93.6% and 96.25% with RD cells (100 μM, CCK-8 4 h (Example 18)). Also, the “Cell viability (%)” value with RD cells (200 μM, CCK-8 4 h (Example 18)) is given as 92.08%. In addition, the “cytotoxicity, result in words” value in the data set on RD cells is reported as “not toxic to cells within 200 μM”. In addition, the viability at 24 h, 3.0625 µM in data set [1] (RD cells, 3.0625 μM, 24 h, CCK-8 4 h (Example 18), read-out: Cell viability (%)) is 102%. For the same molecule, the viability at 24 h, 6.125 µM in data set [1] (RD cells, 6.125 μM, 24 h, CCK-8 4 h (Example 18), read-out: Cell viability (%)) was found to be 101%. Besides, in data set [1] (RD cells, 12.5 μM, 24 h, CCK-8 4 h (Example 18), read-out: Cell viability (%)), the viability at 24 h, 12.5 µM was determined as 94.9%. In addition, the viability at 24 h, 25 µM in data set [1] (RD cells, 25 μM, 24 h, CCK-8 4 h (Example 18), read-out: Cell viability (%)) worked out at 93.4%. The viability at 24 h, 50 µM in data set [1] (RD cells, 50 μM, 24 h, CCK-8 4 h (Example 18), read-out: Cell viability (%)) is 95.2%. In addition, in data set [1] (RD cells, 100 μM, 24 h, CCK-8 4 h (Example 18), read-out: Cell viability (%)), the viability at 24 h, 100 µM came out at 93.1%. In data set [1] (RD cells, 200 μM, 24 h, CCK-8 4 h (Example 18), read-out: Cell viability (%)), the viability at 24 h, 200 µM stood at 88.9%. In addition, in data set [1], the CC50 at 24 h is greater than 200 µM.

Regarding RRRRRRRREEVRQYCRDQ [P2], the IC50 in the data set on CVA16 is 1.53 µM. Also, the “Cell viability (%)” value in the data set with RD cells (0.01 μM polypeptide, untreated = 100%) is 104.6% and 102.7%; with RD cells (0.1 μM polypeptide, untreated = 100%) it was 104% and 100.6%; with RD cells (1 μM polypeptide, untreated = 100%), 105.4% and 98.81%; with RD cells (10 μM polypeptide, untreated = 100%), 101.1% and 99.03%; in the data set with RD cells (100 μM polypeptide, untreated = 100%) it was 106.8% and 94.07%. In addition, the “cytotoxicity, result in words” value with RD cells is “not toxic to cells within 100 μM”. For the same molecule, the viability at 24 h, 0.01 µM in data set [1] (setting [2]) was 98%. The viability at 24 h, 0.1 µM in data set [1] (setting [2]) was 94.4%. Further, the viability at 24 h, 1 µM in data set [1] (setting [2]) was found to be 105%. For the same molecule, in data set [1] (setting [2]), the viability at 24 h, 10 µM is 96.6%. For the same molecule, the viability at 24 h, 100 µM in data set [1] (RD cells, 100 μM polypeptide, 24 h, untreated = 100%, read-out: Cell viability (%)) stood at 90.1%. Moreover, the CC50 at 24 h in data set [1] was greater than 100 µM.

Turning to `CC[C@@H](C)[C@@H](NC(=O)[C@H]1CCCN1C(C)=O)C(=O)N[C@@H](C(=O)N[C@H](Cc1c[nH]c2ccccc12)C(=O)NCC(=O)N[C@H](CCC(N)=O)C(=O)N[C@H](CCC(=O)O)C(=O)N[C@H](CCCNC(=N)N)C(=O)N[C@H](CS)C(=O)N[C@H](Cc1ccc(O)cc1)C(=O)N[C@H](CCC(N)=O)C(=O)N[C@H](CCCNC(=N)N)C(=O)N[C@@H](C(=O)N[C@H](CCC(=O)O)C(=O)N[C@H](CCC(=O)O)C(=O)N1CCC[C@@H]1C(=O)N1CCC[C@@H]1C(=O)N[C@H](CCCNC(=N)N)C(=O)N[C@H](CCCNC(=N)N)C(=O)N[C@H](CCCNC(=N)N)C(=O)N[C@H](CCC(N)=O)C(=O)N[C@H](CCCNC(=N)N)C(=O)N[C@H](CCCNC(=N)N)C(=O)N[C@H](CCCCN)C(=O)N[C@H](CCCCN)C(=O)N[C@H](CCCNC(=N)N)C(=O)NCC(=O)N[C@H](Cc1ccc(O)cc1)C(N)=O)C(C)C)[C@H](C)CC` [3A-EP-DRI], the “cytotoxicity, result in words” value with RD cells is “not toxic to cells within 50 μM”. Besides, in data set [1] (setting [2]), the viability at 24 h, 0.01 µM is 106%; the viability at 24 h, 0.1 µM is 95.9%; the viability at 24 h, 1 µM amounted to 91.3%; the viability at 24 h, 10 µM was 95.7%. In data set [1] (setting [3]), the viability at 24 h, 20 µM came to 101%; the viability at 24 h, 30 µM amounted to 99%; the viability at 24 h, 40 µM came to 89%. For the same molecule, the viability at 24 h, 50 µM in data set [1] (setting [4]) came to 78.5%. Also, in data set [1], the CC50 at 24 h is greater than 100 µM.
